US20240190880A1 (THE REGENTS OF THE UNIVERSITY OF MICHIGAN, priority 2021, published 2024)

Each molecule was assayed against T1, ER (Homo sapiens, UniProt P03372) (assay: ER degradation activity, in-cell western blot analysis in T47D cells). Settings: 16 hours, Table A does not say which cell line (T47D or MCF7), read-out: Potency (DC50).
T1 construct: host or cells: T47D and MCF7 human breast cancer cells
T1 sequence (P03372 1-595): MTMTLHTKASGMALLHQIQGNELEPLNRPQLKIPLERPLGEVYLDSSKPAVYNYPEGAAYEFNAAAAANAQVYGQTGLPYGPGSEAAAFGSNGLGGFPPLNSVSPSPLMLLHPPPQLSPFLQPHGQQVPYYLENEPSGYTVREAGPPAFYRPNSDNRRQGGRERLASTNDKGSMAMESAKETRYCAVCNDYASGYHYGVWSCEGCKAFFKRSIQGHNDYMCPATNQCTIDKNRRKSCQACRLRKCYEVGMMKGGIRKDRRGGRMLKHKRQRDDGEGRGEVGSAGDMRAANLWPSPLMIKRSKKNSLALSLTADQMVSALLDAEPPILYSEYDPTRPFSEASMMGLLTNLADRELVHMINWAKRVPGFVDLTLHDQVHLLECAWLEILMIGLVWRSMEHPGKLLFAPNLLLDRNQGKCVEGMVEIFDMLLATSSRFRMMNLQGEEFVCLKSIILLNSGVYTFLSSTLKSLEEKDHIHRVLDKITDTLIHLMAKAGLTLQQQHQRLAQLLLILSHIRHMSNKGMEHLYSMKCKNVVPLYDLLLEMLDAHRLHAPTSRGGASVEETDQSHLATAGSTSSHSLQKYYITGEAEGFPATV
Type: cell-based
How it was run: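 Read-out is near-infrared fluorescence from an in-cell western, expressed as ER percentage relative to untreated and DMSO controls taken as 100%. T47D breast cancer cells received compound for 16 h in 0.5% DMSO.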

Compound	DC50
O=C1CCC(N2C(=O)c3cc4c(cc3C2=O)CN(CC2CN(CC3CCN(c5ccc([C@@H]6c7ccc(O)cc7CC[C@@H]6c6ccccc6)cc5)CC3)C2)C4)C(=O)N1 (stereo partly drawn) [E 218, 2-(2,6-dioxopiperidin-3-yl)-6-((1-((1-(4-((1R,2S)-6-hydroxy-2-phenyl-1,2,3,4-tetrahydronaphthalen-1-yl)phenyl)piperidin-4-yl)methyl)azetidin-3-yl)methyl)-6,7-dihydropyrrolo[3,4-f]isoindole-1,3(2H,5H)-dione]	> 100 nM
O=C1CCC(N2C(=O)c3cc4c(cc3C2=O)CN(CC(=O)N2CCC(Oc3ccc([C@@H]5c6ccc(O)cc6CC[C@@H]5c5ccccc5)cc3)CC2)C4)C(=O)N1 (stereo partly drawn) [E 219, 2-(2,6-dioxopiperidin-3-yl)-6-(2-(4-(4-((1R,2S)-6-hydroxy-2-phenyl-1,2,3,4-tetrahydronaphthalen-1-yl)phenoxy)piperidin-1-yl)-2-oxoethyl)-6,7-dihydropyrrolo[3,4-f]isoindole-1,3(2H,5H)-dione]	> 100 nM
O=C1CCC(N2C(=O)c3cc4c(cc3C2=O)CN(CC(=O)N2CCC3(CC2)CC(Oc2ccc([C@@H]5c6ccc(O)cc6CC[C@@H]5c5ccccc5)cc2)C3)C4)C(=O)N1 (stereo partly drawn) [E 220, 2-(2,6-dioxopiperidin-3-yl)-6-(2-(2-(4-((1R,2S)-6-hydroxy-2-phenyl-1,2,3,4-tetrahydronaphthalen-1-yl)phenoxy)-7-azaspiro[3.5]nonan-7-yl)-2-oxoethyl)-6,7-dihydropyrrolo[3,4-f]isoindole-1,3(2H,5H)-dione]	> 100 nM
O=C1CCC(N2C(=O)c3cc4c(cc3C2=O)CN(CC(=O)N2CC3(CC(Oc5ccc([C@@H]6c7ccc(O)cc7CC[C@H]6c6ccccc6)cc5)C3)C2)C4)C(=O)N1 (stereo partly drawn) [E 221, 2-(2,6-dioxopiperidin-3-yl)-6-(2-(6-(4-((1R,2R)-6-hydroxy-2-phenyl-1,2,3,4-tetrahydronaphthalen-1-yl)phenoxy)-2-azaspiro[3.3]heptan-2-yl)-2-oxoethyl)-6,7-dihydropyrrolo[3,4-f]isoindole-1,3(2H,5H)-dione]	> 100 nM
O=C1CCC(N2C(=O)c3cc4c(cc3C2=O)CN(C(=O)CN2CCC3(CC2)CC(Oc2ccc([C@@H]5c6ccc(O)cc6CC[C@@H]5c5ccccc5)cc2)C3)C4)C(=O)N1 (stereo partly drawn) [E 222, 2-(2,6-dioxopiperidin-3-yl)-6-(2-(2-(4-((1R,2S)-6-hydroxy-2-phenyl-1,2,3,4-tetrahydronaphthalen-1-yl)phenoxy)-7-azaspiro[3.5]nonan-7-yl)acetyl)-6,7-dihydropyrrolo[3,4-f]isoindole-1,3(2H,5H)-dione]	> 100 nM
O=C1CCC(N2C(=O)c3cc4c(cc3C2=O)CN(CC(=O)N2CC3(CCC(Oc5ccc([C@@H]6c7ccc(O)cc7CC[C@@H]6c6ccccc6)cc5)CC3)C2)C4)C(=O)N1 (stereo partly drawn) [E 223, 2-(2,6-dioxopiperidin-3-yl)-6-(2-(7-(4-((1R,2S)-6-hydroxy-2-phenyl-1,2,3,4-tetrahydronaphthalen-1-yl)phenoxy)-2-azaspiro[3.5]nonan-2-yl)-2-oxoethyl)-6,7-dihydropyrrolo[3,4-f]isoindole-1,3(2H,5H)-dione]	> 100 nM
O=C1CCC(N2C(=O)c3cc4c(cc3C2=O)CN(CC(=O)N2CCC3(CCC(Oc5ccc([C@@H]6c7ccc(O)cc7CC[C@@H]6c6ccccc6)cc5)CC3)CC2)C4)C(=O)N1 (stereo partly drawn) [E 224, 2-(2,6-dioxopiperidin-3-yl)-6-(2-(9-(4-((1R,2S)-6-hydroxy-2-phenyl-1,2,3,4-tetrahydronaphthalen-1-yl)phenoxy)-3-azaspiro[5.5]undecan-3-yl)-2-oxoethyl)-6,7-dihydropyrrolo[3,4-f]isoindole-1,3(2H,5H)-dione]	> 100 nM
C[C@@H]1Cc2cc(O)ccc2[C@@H](c2c(F)cc(N3CCC4(CCN(C(=O)CN5Cc6cc7c(cc6C5)C(=O)N(C5CCC(=O)NC5=O)C7=O)CC4)CC3)cc2F)N1CC(F)(F)F (stereo partly drawn) [E 225, 6-(2-(9-(3,5-difluoro-4-((1S,3R)-6-hydroxy-3-methyl-2-(2,2,2-trifluoroethyl)-1,2,3,4-tetrahydroisoquinolin-1-yl)phenyl)-3,9-diazaspiro[5.5]undecan-3-yl)-2-oxoethyl)-2-(2,6-dioxopiperidin-3-yl)-6,7-dihydropyrrolo[3,4-f]isoindole-1,3(2H,5H)-dione]	> 100 nM
C[C@@H]1Cc2c([nH]c3ccccc23)[C@@H](c2c(F)cc(N3CCC4(CCN(C(=O)CN5Cc6cc7c(cc6C5)C(=O)N(C5CCC(=O)NC5=O)C7=O)CC4)CC3)cc2F)N1CC(F)(F)F (stereo partly drawn) [E 226, 6-(2-(9-(3,5-difluoro-4-((1R,3R)-3-methyl-2-(2,2,2-trifluoroethyl)-2,3,4,9-tetrahydro-1H-pyrido[3,4-b]indol-1-yl)phenyl)-3,9-diazaspiro[5.5]undecan-3-yl)-2-oxoethyl)-2-(2,6-dioxopiperidin-3-yl)-6,7-dihydropyrrolo[3,4-f]isoindole-1,3(2H,5H)-dione]	10 to 100 nM
C[C@@H]1Cc2c([nH]c3ccccc23)[C@@H](c2c(F)cc(N3CCC4(CC3)CN(C(=O)CN3Cc5cc6c(cc5C3)C(=O)N(C3CCC(=O)NC3=O)C6=O)C4)cc2F)N1CC(F)(F)F (stereo partly drawn) [E 227, 6-(2-(7-(3,5-difluoro-4-((1R,3R)-3-methyl-2-(2,2,2-trifluoroethyl)-2,3,4,9-tetrahydro-1H-pyrido[3,4-b]indol-1-yl)phenyl)-2,7-diazaspiro[3.5]nonan-2-yl)-2-oxoethyl)-2-(2,6-dioxopiperidin-3-yl)-6,7-dihydropyrrolo[3,4-f]isoindole-1,3(2H,5H)-dione]	10 to 100 nM
C[C@@H]1Cc2c([nH]c3ccccc23)[C@@H](c2c(F)cc(N3CCC(C(=O)N4CCC(N5Cc6cc7c(cc6C5)C(=O)N(C5CCC(=O)NC5=O)C7=O)CC4)CC3)cc2F)N1CC(F)(F)F (stereo partly drawn) [E 228, 6-(1-(1-(3,5-difluoro-4-((1R,3R)-3-methyl-2-(2,2,2-trifluoroethyl)-2,3,4,9-tetrahydro-1H-pyrido[3,4-b]indol-1-yl)phenyl)piperidine-4-carbonyl)piperidin-4-yl)-2-(2,6-dioxopiperidin-3-yl)-6,7-dihydropyrrolo[3,4-f]isoindole-1,3(2H,5H)-dione]	10 to 100 nM
C[C@@H]1Cc2c([nH]c3ccccc23)[C@@H](c2c(F)cc(N3CC(C(=O)N4CC(N5Cc6cc7c(cc6C5)C(=O)N(C5CCC(=O)NC5=O)C7=O)C4)C3)cc2F)N1CC(F)F (stereo partly drawn) [E 229, 6-(1-(1-(4-((1R,3R)-2-(2,2-difluoroethyl)-3-methyl-2,3,4,9-tetrahydro-1H-pyrido[3,4-b]indol-1-yl)-3,5-difluorophenyl)azetidine-3-carbonyl)azetidin-3-yl)-2-(2,6-dioxopiperidin-3-yl)-6,7-dihydropyrrolo[3,4-f]isoindole-1,3(2H,5H)-dione]	10 to 100 nM
C[C@@H]1Cc2c([nH]c3ccccc23)[C@@H](c2c(F)cc(N3CC(C(=O)N4CC(CN5Cc6cc7c(cc6C5)C(=O)N(C5CCC(=O)NC5=O)C7=O)C4)C3)cc2F)N1CC(F)F (stereo partly drawn) [E 230, 6-((1-(1-(4-((1R,3R)-2-(2,2-difluoroethyl)-3-methyl-2,3,4,9-tetrahydro-1H-pyrido[3,4-b]indol-1-yl)-3,5-difluorophenyl)azetidine-3-carbonyl)azetidin-3-yl)methyl)-2-(2,6-dioxopiperidin-3-yl)-6,7-dihydropyrrolo[3,4-f]isoindole-1,3(2H,5H)-dione]	10 to 100 nM
C[C@@H]1Cc2c([nH]c3ccccc23)[C@@H](c2c(F)cc(N3CCC4(CCN(CC5Cc6cc7c(cc6C5)C(=O)N(C5CCC(=O)NC5=O)C7=O)CC4)CC3)cc2F)N1CC(F)(F)F (stereo partly drawn) [E 231, 6-((9-(3,5-difluoro-4-((1R,3R)-3-methyl-2-(2,2,2-trifluoroethyl)-2,3,4,9-tetrahydro-1H-pyrido[3,4-b]indol-1-yl)phenyl)-3,9-diazaspiro[5.5]undecan-3-yl)methyl)-2-(2,6-dioxopiperidin-3-yl)-6,7-dihydrocyclopenta[f]isoindole-1,3(2H,5H)-dione]	> 100 nM
C[C@@H]1Cc2c([nH]c3ccccc23)[C@@H](c2c(F)cc(N3CCC4(CC3)CN(CC3Cc5cc6c(cc5C3)C(=O)N(C3CCC(=O)NC3=O)C6=O)C4)cc2F)N1CC(F)F (stereo partly drawn) [E 232, 6-((7-(4-((1R,3R)-2-(2,2-difluoroethyl)-3-methyl-2,3,4,9-tetrahydro-1H-pyrido[3,4-b]indol-1-yl)-3,5-difluorophenyl)-2,7-diazaspiro[3.5]nonan-2-yl)methyl)-2-(2,6-dioxopiperidin-3-yl)-6,7-dihydrocyclopenta[f]isoindole-1,3(2H,5H)-dione]	> 100 nM
C[C@@H]1Cc2c([nH]c3ccccc23)[C@@H](c2c(F)cc(N3CCC(C(=O)N4CCC(CN5Cc6cc7c(cc6C5)C(=O)N(C5CCC(=O)NC5=O)C7=O)CC4)CC3)cc2F)N1CC(F)F (stereo partly drawn) [E 233, 6-((1-(1-(4-((1R,3R)-2-(2,2-difluoroethyl)-3-methyl-2,3,4,9-tetrahydro-1H-pyrido[3,4-b]indol-1-yl)-3,5-difluorophenyl)piperidine-4-carbonyl)piperidin-4-yl)methyl)-2-(2,6-dioxopiperidin-3-yl)-6,7-dihydropyrrolo[3,4-f]isoindole-1,3(2H,5H)-dione]	> 100 nM
